Reference: the RepoRT retention time repository (doi:10.1021/acs.analchem.2c02893)
One block for each compound: values may come before it.

Key:
Settings in all cases: stereoisomer not certain
[1] = RP, Thermo Scientific Acclaim RSLC 120 C18, 100 × 2.1 mm, 2.2 µm, 30 °C, 0.2 mL/min, estimated dead time 1.1 min; A: 90% water + 10% methanol + 0.01% formic acid + 5 mM ammonium formate, pH 3.61; B: methanol + 0.01% formic acid + 5 mM ammonium formate, pH 3.61; gradient (min/%B) 0/1 1/1 2/39 13/99.9 15/99.9 15.1/1 20.1/1
[2] = RP, Thermo Scientific Acclaim RSLC 120 C18, 100 × 2.1 mm, 2.2 µm, 30 °C, 0.2 mL/min, estimated dead time 1.1 min; A: water + 0.1% formic acid, pH 2.6; B: methanol + 0.1% formic acid, pH 2.6; gradient (min/%B) 0/10 4/50 17/95 25/95 25.1/10 30/10
[3] = RP, Waters ACQUITY UPLC BEH C18, 100 × 2.1 mm, 1.7 µm, 30 °C, 0.35 mL/min, estimated dead time 0.63 min; A: water + 0.01% formic acid + 5 mM ammonium formate, pH 3.71; B: acetonitrile + 0.01% formic acid, pH 3.71; gradient (min/%B) 0/10 3/10 22/100 30/100 30.1/10 40/10
[4] = RP, Waters ACQUITY UPLC BEH C18, 100 × 2.1 mm, 1.7 µm, 35 °C, 0.35 mL/min, estimated dead time 0.63 min; A: water + 0.01% formic acid + 5 mM ammonium formate, pH 3.71; B: acetonitrile + 0.01% formic acid, pH 3.71; gradient (min/%B) 0/5 0.5/5 16/95 16.1/99 19/99 19.1/5 21/5

Structure (SMILES): CCOP(=O)(OCC)OCC [Phosphate-triethyl]
- LC retention time [1]: 6.16 min
- LC retention time [2]: 6.94 min
- LC retention time [3]: 7.31 min
- LC retention time [4]: 5.48 min

Structure (SMILES): COC(=O)c1ccccc1C(=O)OC [Phthalate-Dimethyl]
- LC retention time [1]: 6.63 min
- LC retention time [2]: 7.52 min
- LC retention time [3]: 9.38 min
- LC retention time [4]: 7.03 min

Structure (SMILES): c1cc2c(cc1CN1CCNCC1)OCO2 [Piperazine-1-Piperonyl]
- LC retention time [2]: 2.56 min
- LC retention time [3]: 2.63 min
- LC retention time [4]: 3.2 min

Structure (SMILES): CC12CCC(=O)C=C1CCC1C2CCC2(C)C(O)CCC12 (centres undefined) [Testosterone]
- LC retention time [2]: 12.2 min
- LC retention time [3]: 11.6 min
- LC retention time [4]: 8.76 min

Structure (SMILES): Nc1ncn[nH]1 [Amitrole]
- LC retention time [1]: 1.44 min
- LC retention time [3]: 0.91 min
- LC retention time [4]: 0.88 min

Structure (SMILES): COP(=O)(OC)OC=C(Cl)Cl [Dichlorvos]
- LC retention time [1]: 7 min
- LC retention time [2]: 8.02 min
- LC retention time [3]: 9.14 min
- LC retention time [4]: 6.79 min

Structure (SMILES): CCC(C(N)=O)N1CCCC1=O (centres undefined) [Levetiracetam]
- LC retention time [1]: 3.74 min
- LC retention time [2]: 3.89 min
- LC retention time [3]: 1.68 min
- LC retention time [4]: 2.43 min

Structure (SMILES): CCSCc1ccccc1OC(=O)NC [Ethiofencarb]
- LC retention time [1]: 7.7 min
- LC retention time [2]: 9.05 min
- LC retention time [3]: 10.7 min
- LC retention time [4]: 8.02 min

Structure (SMILES): NC(=O)N=C(N)N [Guanylurea]
- LC retention time [3]: 0.83 min
- LC retention time [4]: 0.86 min

Structure (SMILES): CCOC(=O)c1ccccc1C(=O)OCC [Phthalate-Diethyl]
- LC retention time [1]: 8.5 min
- LC retention time [2]: 10.2 min
- LC retention time [3]: 12.2 min
- LC retention time [4]: 9.21 min

Structure (SMILES): NCC(O)c1ccccc1 (centres undefined) [Apophedrin (Phenylethanolamine)]
- LC retention time [2]: 2.34 min
- LC retention time [3]: 1.38 min
- LC retention time [4]: 1.65 min

Structure (SMILES): CCN(C)C(=O)Oc1cccc(C(C)N(C)C)c1 (centres undefined) [Rivastigmine]
- LC retention time [1]: 4.74 min
- LC retention time [2]: 4.86 min
- LC retention time [3]: 6.53 min
- LC retention time [4]: 4.78 min

Structure (SMILES): CN(C)CC1CCCCC1(O)c1cccc(O)c1 (centres undefined) [Tramadol-O-Desmethyl]
- LC retention time [1]: 4.06 min
- LC retention time [2]: 3.86 min
- LC retention time [3]: 3.56 min
- LC retention time [4]: 3.48 min

Structure (SMILES): NC1Cc2cc3c(cc2C1)OCO3 [MDAI]
- LC retention time [1]: 3.81 min
- LC retention time [2]: 3.47 min
- LC retention time [3]: 2.34 min
- LC retention time [4]: 2.95 min

Structure (SMILES): CCNC(C)Cc1cccc(C(F)(F)F)c1 (centres undefined) [Fenfluramine]
- LC retention time [2]: 5.84 min
- LC retention time [3]: 8.46 min
- LC retention time [4]: 6.21 min

Structure (SMILES): CCNc1nc(Cl)nc(NC(C)C)n1 [Atrazine]
- LC retention time [1]: 8.16 min
- LC retention time [2]: 9.72 min
- LC retention time [3]: 10.3 min
- LC retention time [4]: 7.82 min

Structure (SMILES): COc1cccc(C2(O)CCCCC2CN(C)C)c1 (centres undefined) [Tramadol]
- LC retention time [1]: 4.88 min
- LC retention time [2]: 4.86 min
- LC retention time [3]: 6.56 min
- LC retention time [4]: 4.79 min

Structure (SMILES): CCC(C)C1OC2(C=CC1C)CC1CC(CC=C(C)C(OC3CC(OC)C(OC4CC(OC)C(O)C(C)O4)C(C)O3)C(C)C=CC=C3COC4C(O)C(C)=CC(C(=O)O1)C34O)O2 (centres undefined) [Avermectin]
- LC retention time [2]: 18.7 min
- LC retention time [3]: 18.8 min
- LC retention time [4]: 14.6 min

Structure (SMILES): COCC(NC(C)=O)C(=O)NCc1ccccc1 (centres undefined) [Lacosamide]
- LC retention time [1]: 5.09 min
- LC retention time [2]: 5.79 min
- LC retention time [3]: 5.76 min
- LC retention time [4]: 4.46 min

Structure (SMILES): C#CCN(C)C(C)Cc1ccccc1 (centres undefined) [Deprenyl/Selegiline]
- LC retention time [2]: 4.32 min
- LC retention time [3]: 5.98 min
- LC retention time [4]: 4.53 min

Structure (SMILES): COP(=O)(OC)C(O)C(Cl)(Cl)Cl (centres undefined) [Trichlorfon]
- LC retention time [2]: 5.86 min
- LC retention time [3]: 5.41 min
- LC retention time [4]: 4.26 min

Structure (SMILES): CCC(C)C1OC2(C=CC1C)CC1CC(CC=C(C)C(OC3CC(OC)C(OC4CC(OC)C(NC)C(C)O4)C(C)O3)C(C)C=CC=C3COC4C(O)C(C)=CC(C(=O)O1)C34O)O2 (centres undefined) [Emamectin]
- LC retention time [2]: 14.3 min
- LC retention time [3]: 16.3 min
- LC retention time [4]: 12.6 min

Structure (SMILES): C[N+](C)(C)CCCl [Chlormequate]
- LC retention time [3]: 0.84 min
- LC retention time [4]: 0.84 min

Structure (SMILES): CCC(=O)C1(c2cccc(O)c2)CCN(C)CC1 [Ketobemidone]
- LC retention time [1]: 4.26 min

Structure (SMILES): COC(=O)C(NC(=O)c1nn(CCCCCF)c2ccccc12)C(C)C (centres undefined) [AMB-5F]
- LC retention time [1]: 10.5 min

The remaining lines, values ahead:

- LC retention time [1]: 10.3 min
- LC retention time [2]: 10.9 min
- LC retention time [3]: 12.2 min
- LC retention time [4]: 9.17 min
Structure (SMILES): COC(=O)Nc1nc2ccc(Sc3ccccc3)cc2[nH]1 [Fenbendazole]

- LC retention time [2]: 7.4 min
- LC retention time [3]: 7.78 min
- LC retention time [4]: 5.76 min
Structure (SMILES): O=c1[nH]c2ccccc2s1 [Benzothiazole-2-OH]

- LC retention time [1]: 3.93 min
- LC retention time [2]: 4.14 min
- LC retention time [3]: 1.66 min
- LC retention time [4]: 2.31 min
Structure (SMILES): Cn1c(=O)c2[nH]cnc2n(C)c1=O [Theophylline]

- LC retention time [1]: 4.23 min
- LC retention time [2]: 4.69 min
- LC retention time [3]: 2.43 min
- LC retention time [4]: 3.08 min
Structure (SMILES): Cn1c(=O)c2c(ncn2C)n(C)c1=O [Caffeine]

- LC retention time [1]: 7.46 min
- LC retention time [2]: 8.57 min
- LC retention time [3]: 9.84 min
- LC retention time [4]: 7.28 min
Structure (SMILES): CC1CCc2cc(F)cc3c(=O)c(C(=O)O)cn1c23 (centres undefined) [Flumequine]

- LC retention time [1]: 6.91 min
- LC retention time [2]: 6.63 min
- LC retention time [3]: 8.04 min
- LC retention time [4]: 5.86 min
Structure (SMILES): CC12CC3CC(C)(C1)CC(N)(C3)C2 [Memantine]

- LC retention time [2]: 2.71 min
- LC retention time [3]: 1.28 min
- LC retention time [4]: 1.92 min
Structure (SMILES): CC(C)(C)NCC(O)c1ccc(O)c(CO)c1 (centres undefined) [Albuterol/Salbutamol]

- LC retention time [1]: 2.41 min
- LC retention time [2]: 1.34 min
- LC retention time [3]: 1.03 min
- LC retention time [4]: 1.17 min
Structure (SMILES): CN1CCCC1c1cccnc1 (centres undefined) [Nicotine]

- LC retention time [1]: 3.75 min
- LC retention time [2]: 1.71 min
- LC retention time [3]: 1.41 min
- LC retention time [4]: 2.06 min
Structure (SMILES): CN1C(=O)CCC1c1cccnc1 (centres undefined) [Cotinine]

- LC retention time [1]: 1.58 min
- LC retention time [3]: 0.99 min
- LC retention time [4]: 0.94 min
Structure (SMILES): NCCc1cnc[nH]1 [Histamine]

- LC retention time [1]: 3.28 min
- LC retention time [2]: 3.37 min
- LC retention time [3]: 1.23 min
- LC retention time [4]: 1.65 min
Structure (SMILES): Cn1cnc2c1c(=O)[nH]c(=O)n2C [Theobromine]

- LC retention time [1]: 4.76 min
- LC retention time [2]: 5.31 min
- LC retention time [3]: 3.69 min
- LC retention time [4]: 3.61 min
Structure (SMILES): c1ccc2n[nH]nc2c1 [Benzotriazole (BTR)]

- LC retention time [1]: 5.31 min
- LC retention time [2]: 5.17 min
- LC retention time [3]: 6.41 min
- LC retention time [4]: 4.66 min
Structure (SMILES): Nc1nnc(-c2cccc(Cl)c2Cl)c(N)n1 [Lamotrigine]

- LC retention time [1]: 5.91 min
- LC retention time [2]: 5.8 min
- LC retention time [3]: 8.09 min
- LC retention time [4]: 5.91 min
Structure (SMILES): CC(C)NCC(O)COc1ccc(COCCOC(C)C)cc1 (centres undefined) [Bisoprolol]

- LC retention time [1]: 3.26 min
- LC retention time [2]: 2.81 min
- LC retention time [3]: 1.89 min
- LC retention time [4]: 2.68 min
Structure (SMILES): N#CC1CCCN1C(=O)CNC12CC3CC(CC(O)(C3)C1)C2 (centres undefined) [Vildagliptin]

- LC retention time [1]: 7.79 min
- LC retention time [2]: 9.15 min
- LC retention time [3]: 11.5 min
- LC retention time [4]: 8.66 min
Structure (SMILES): NC(=O)c1ccccc1Oc1ccccc1 [Phenoxybenzamide]

- LC retention time [1]: 3.88 min
- LC retention time [2]: 3.67 min
- LC retention time [3]: 3.36 min
- LC retention time [4]: 3.48 min
Structure (SMILES): COc1ccc(Cc2cnc(N)nc2N)cc1OC [Diaveridine]

- LC retention time [1]: 10.1 min
- LC retention time [2]: 12.5 min
- LC retention time [3]: 13 min
- LC retention time [4]: 9.87 min
Structure (SMILES): COC1C=COC2(C)Oc3c(C)c(O)c4c(O)c(c5c(nc6cc(C)ccn65)c4c3C2=O)NC(=O)C(C)=CC=CC(C)C(O)C(C)C(O)C(C)C(OC(C)=O)C1C (centres undefined) [Rifaximin]

- LC retention time [1]: 4.36 min
- LC retention time [2]: 5.37 min
- LC retention time [3]: 6.08 min
- LC retention time [4]: 4.19 min
Structure (SMILES): CCN1CCN(C(=O)NC(C(=O)NC2C(=O)N3C(C(=O)O)=C(CSc4nnnn4C)CSC23)c2ccc(O)cc2)C(=O)C1=O (centres undefined) [Cefoperazone]

- LC retention time [1]: 4.42 min
- LC retention time [2]: 4.46 min
- LC retention time [3]: 5.54 min
- LC retention time [4]: 4.13 min
Structure (SMILES): O=C(O)c1cn(C2CC2)c2cc(N3CCNCC3)c(F)cc2c1=O [Ciprofloxacin]

- LC retention time [2]: 20.4 min
- LC retention time [3]: 21.1 min
- LC retention time [4]: 17 min
Structure (SMILES): CCC(C)C1OC2(CCC1C)CC1CC(CC=C(C)C(OC3CC(OC)C(OC4CC(OC)C(O)C(C)O4)C(C)O3)C(C)C=CC=C3COC4C(O)C(C)=CC(C(=O)O1)C34O)O2 (centres undefined) [Ivermectin]

- LC retention time [1]: 8.83 min
- LC retention time [2]: 10.7 min
- LC retention time [3]: 10.8 min
- LC retention time [4]: 8.16 min
Structure (SMILES): CCC(C)OC(=O)N1CCCCC1CCO (centres undefined) [Picaridin (Icaridin)]

- LC retention time [1]: 10.6 min
Structure (SMILES): CC(O)C1C(=O)N2C(C(=O)O)=C(SC3CNC(C(=O)N(C)C)C3)C(C)C12 (centres undefined) [Meropenem]

- LC retention time [1]: 6.28 min
Structure (SMILES): Cc1ccc(C(=CCN2CCCC2)c2ccccn2)cc1 [Triprolidine]

- LC retention time [1]: 6.98 min
Structure (SMILES): CC(C)N=C(N)N=C(N)Nc1ccc(Cl)cc1 [Proguanil]

- LC retention time [1]: 4.94 min
Structure (SMILES): Cc1cccc(C)c1N(Cn1cccn1)C(=O)CS(=O)CC(=O)O (centres undefined) [Metazachlor BH 479-9]
